Data from patent EP0086757A1, “Derivatives of alpha or beta-mercaptopropionylamidoacetic acids, processes for their preparation and the therapeutic compositions which include them as active principles” (Farmatis S.r.l., priority 1982, dated 1983).
Like-named read-outs stand apart in the source and are kept apart here.

Legend:
[1] = tested on: rats which underwent CCl4 nebulization treatment; test: CCl4 nebulization, bronchial mucosa protection; assay type: in vivo; conditions: oral 0.5 g/kg/die; CCl4 nebulization 10 days, 5 applications, 2 minutes per day
Source text: (§1) Finally, with the rats which underwent CCl4 nebulization treatment for 10 days (5 applications, 2.minutes per day), the contemporaneous oral administration of the esters of this invention, at doses of 0.5 g/kg/die, prevented intrabronchial desquamation and reactive hyperplasia of the mucosa to the extent of 60%.

[2] = tested on: bronchial hypersecretion induced in rats with SO2; test: bronchial hypersecretion induced with SO2 inhalation; assay type: in vivo; conditions: oral 0.5 g/kg/die for two weeks; 300 ppm SO2 two hours per day, total 90 hours; untreated 80%
Procedure: as §1, with “The inhalation of 300 ppm of […] for two hours per day, for a total period of 90 hours, produced bronchial obstruction in only 12% of the animals compared to the 80% produced in those not treated. […] Finally,” for “Finally,”

[3] = tested on: aerosol histaminic shock; test: aerosol histaminic shock (antibronchospastic activity); assay type: in vivo
Procedure: The antibronchospastic activity of the new compounds, in face, was evaluated by pretreating test animals with 2 g/kg of the new compounds, administered by way of an esophagal probe, and then submitting them to aerosol histaminic shock (histamine phosphate 1:80 at about 140 mm Eg). The time was noted between when the aerosol was given and the convulsions began. After two hours of pretreatment, times amounting to 70% of the approximately 120 seconds of the control group were obtained. […] The new compounds, therefore, provide intense and persistent protection against bronchspasm induced experimentally with histamine, in strict correlation with the anti-inflammatory activity reported previously.

[4] = tested on: glycopeptides of the bronchial mucus; test: glycopeptide analysis of bronchial mucus of orally treated patients with bronchial hypersecretion; assay type: in vivo; conditions: comparative test, 70 mg/kg/die
[5] = tested on: Carragenin-induce edema in hind paw of the rat; test: carragenin-induced hind paw edema (anti-inflammatory activity); assay type: in vivo, rats; conditions: oral by esophagal probe one hour before carragenin; paw volume three hours later
Procedure: The anti-inflammatory activity was investigated on rats by administering the new products,orally,using an esophagal probe. One hour after administration, a subcutaneous injection of 0.05 ml of 1% carragenin was made in the right hind paw and three hours later a plethysmometric evaluation was made of the difference in volume between the two hind paws (WINTER C.A., RISLEY E.A., NUSS G.W., Carragenin-induce edema in hind paw of the rat as an assay for anti-inflammatory drugs. Proc. Soc. Exp. Biol. Med., 111, 544 - 1962).

[6] = acute toxicity (DL50); assay type: in vivo
Procedure: In fact, while S-carboxymethylcysteine has a DL50 of 5.18 g/kg, the new thiolic esters' DL50 cannot be determined, i.p., since more than 5 g/kg cannot be administered; but, orally, the DL50 is above 8 g/kg, as with the S-carboymethylcysteine. The subacute, chronic and fetal toxi city was evaluated by mixing the esters with the food.

[7] = tested on: Carragenin-induce edema in hind paw of the rat; conditions: comparison value for a classical antiphlogistic; cited from earlier work

SMILES	prevention of intrabronchial desquamation and reactive hyperplasia of the mucosa [1] [%]	animals with bronchial obstruction (not protected) [2] [%]	difference between the control and tested subjects in time to convulsions [3]	average increase in sialoglycopeptides [4] [%]	diminution of glycopeptides and mucin [4] [%]	DE50 [5]	DL50 ([6]; i.p. (route only implied for the comparator), more than 5 g/kg cannot be administered) [g/kg]	DL50 ([6]; orally)	DE50 [7] [mg/kg]
N[C@@H](CSCC(=O)O)C(=O)O [S-carboxymethylcysteine]	≤ 40	25	no appreciable difference	≤ 75	≤ 45	not determinable	5.18	above 8 g/kg	
CC(=O)Oc1ccccc1C(=O)O [acetylsalicylic acid]									100
